The source of these data is patent US20100222332A1, “PYRAZOLO-PYRAZINES DERIVATIVES USED AS G PROTEIN INHIBITORS” (Ipsen Pharma S.A.S., priority 2007, published 2010).

Each structure is given as a SMILES string. Counter-ions that a name gives are not always drawn.

`N[C@@H](CSSC[C@H](N)C(=O)N1CCn2nc(-c3ccccc3)cc2[C@@H]1CC1CCCCC1)C(=O)N1CCn2nc(-c3ccccc3)cc2[C@@H]1CC1CCCCC1` (as salt: hydrochloride) [Example 24, (2R)-3-({(2R)-2-amino-3-[(4S)-4-(cyclohexylmethyl)-2-phenyl-6,7-dihydropyrazolo[1,5-a]pyrazin-5(4H)-yl]-3-oxopropyl}dithio)-1-[(4S)-4-(cyclohexylmethyl)-2-phenyl-6,7-dihydropyrazolo[1,5-a]pyrazin-5(4H)-yl]-1-oxopropan-2-amine hydrochloride] gave a melting point of 214 to 219 °C. For `N[C@@H](CSSC[C@H](N)C(=O)N1CCn2nc(-c3ccccc3)cc2[C@H]1CC1CCCCC1)C(=O)N1CCn2nc(-c3ccccc3)cc2[C@H]1CC1CCCCC1` (as salt: hydrochloride) [Example 26, (1R)-3-({(2R)-2-amino-3-[(4R)-4-(cyclohexylmethyl)-2-phenyl-6,7-dihydropyrazolo[1,5-a]pyrazin-5(4H)-yl]-3-oxopropyl}dithio)-1-[(4R)-4-(cyclohexylmethyl)-2-phenyl-6,7-dihydropyrazolo[1,5-a]pyrazin-5(4H)-yl]-1-oxopropan-2-amine hydrochloride] the value was 212 to 217 °C.

The compound `CC(C)(C)OC(=O)N[C@@H](C[Se][Se]C[C@H](NC(=O)OC(C)(C)C)C(=O)N1CCn2nc(-c3ccccc3)cc2C1CC1CCCCC1)C(=O)N1CCn2nc(-c3ccccc3)cc2C1CC1CCCCC1` (mixture of isomers) had a melting point of 117 to 120 °C.

Turning to `N[C@@H](C[Se][Se]C[C@H](N)C(=O)N1CCn2nc(-c3ccccc3)cc2C1CC1CCCCC1)C(=O)N1CCn2nc(-c3ccccc3)cc2C1CC1CCCCC1` (mixture of isomers) (as salt: hydrochloride), the melting point was 217 to 220 °C (dec.). For `N[C@@H](CSSC[C@H](N)C(=O)N1CCn2nc(-c3ccccc3)cc2C1CC1CCCCC1)C(=O)N1CCn2nc(-c3ccccc3)cc2C1CC1CCCCC1` (mixture of isomers) (as salt: hydrochloride) [Example 12, (2R)-3-({(2R)-2-amino-3-[(4RS)-4-(cyclohexylmethyl)-2-phenyl-6,7-dihydropyrazolo[1,5-a]pyrazin-5(4H)-yl]-3-oxopropyl}dithio)-1-[(4RS)-4-(cyclohexylmethyl)-2-phenyl-6,7-dihydropyrazolo[1,5-a]pyrazin-5(4H)-yl]-1-oxopropan-2-amine hydrochloride], the melting point was 218 °C (dec.). Regarding `N[C@@H](CSSC[C@H](N)C(=O)N1CCn2nc(-c3ccccc3)cc2C1CCc1ccccc1)C(=O)N1CCn2nc(-c3ccccc3)cc2C1CCc1ccccc1` (mixture of isomers) (as salt: hydrochloride) [Example 13, (2R)-3-({(2R)-2-amino-3-oxo-3-[(4RS)-2-phenyl-4-(2-phenylethyl)-6,7-dihydropyrazolo[1,5-a]pyrazin-5(4H)-yl]propyl}dithio)-1-oxo-1-[(4RS)-2-phenyl-4-(2-phenylethyl)-6,7-dihydropyrazolo[1,5-a]pyrazin-5(4H)-yl]propan-2-amine hydrochloride], the melting point was 208 °C (dec.). `N[C@@H](CSSC[C@H](N)C(=O)N1CCn2nc(-c3ccncc3)cc2C1CCc1ccccc1)C(=O)N1CCn2nc(-c3ccncc3)cc2C1CCc1ccccc1` (mixture of isomers) (as salt: hydrochloride) [Example 14, (2R)-3-({(2R)-2-amino-3-oxo-3-[(4RS)-4-(2-phenylethyl)-2-pyridin-4-yl-6,7-dihydropyrazolo[1,5-a]pyrazin-5(4H)-yl]propyl}dithio)-1-oxo-1-[(4RS)-4-(2-phenylethyl)-2-pyridin-4-yl-6,7-dihydropyrazolo[1,5-a]pyrazin-5(4H)-yl]propan-2-amine hydrochloride]: the melting point was 227 °C (dec.). The result for `N[C@@H](CSSC[C@H](N)C(=O)N1CCn2nc(-c3cccnc3)cc2C1CCc1ccccc1)C(=O)N1CCn2nc(-c3cccnc3)cc2C1CCc1ccccc1` (mixture of isomers) (as salt: hydrochloride) [Example 15, (2R)-3-({(2R)-2-amino-3-oxo-3-[(4RS)-4-(2-phenylethyl)-2-pyridin-3-yl-6,7-dihydropyrazolo[1,5-a]pyrazin-5(4H)-yl]propyl}dithio)-1-oxo-1-[(4RS)-4-(2-phenylethyl)-2-pyridin-3-yl-6,7-dihydropyrazolo[1,5-a]pyrazin-5(4H)-yl]propan-2-amine hydrochloride] reads 223 °C (dec.); that for `N[C@@H](CSSC[C@H](N)C(=O)N1CCn2nc(-c3ccc4c(c3)OCO4)cc2C1CCc1ccccc1)C(=O)N1CCn2nc(-c3ccc4c(c3)OCO4)cc2C1CCc1ccccc1` (mixture of isomers) (as salt: hydrochloride) [Example 16, (2R)-3-({(2R)-2-amino-3-[(4RS)-2-(1,3-benzodioxol-5-yl)-4-(2-phenylethyl)-6,7-dihydropyrazolo[1,5-a]pyrazin-5(4H)-yl]-3-oxopropyl}dithio)-1-[(4RS)-2-(1,3-benzodioxol-5-yl)-4-(2-phenylethyl)-6,7-dihydropyrazolo[1,5-a]pyrazin-5(4H)-yl]-1-oxopropan-2-amine hydrochloride], 221 °C (dec.); that for `COc1cc(-c2cc3n(n2)CCN(C(=O)[C@@H](N)CSSC[C@H](N)C(=O)N2CCn4nc(-c5cc(OC)c(OC)c(OC)c5)cc4C2CCc2ccccc2)C3CCc2ccccc2)cc(OC)c1OC` (mixture of isomers) (as salt: hydrochloride) [Example 17, (2R)-3-({(2R)-2-amino-3-oxo-3-[(4RS)-4-(2-phenylethyl)-2-(3,4,5-trimethoxyphenyl)-6,7-dihydropyrazolo[1,5-a]pyrazin-5(4H)-yl]propyl}dithio)-1-oxo-1-[(4RS)-4-(2-phenylethyl)-2-(3,4,5-trimethoxyphenyl)-6,7-dihydropyrazolo[1,5-a]pyrazin-5(4H)-yl]propan-2-amine hydrochloride], 211 °C (dec.).

In the case of `N[C@@H](CSSC[C@H](N)C(=O)N1CCn2nc(-c3cccs3)cc2C1CCc1ccccc1)C(=O)N1CCn2nc(-c3cccs3)cc2C1CCc1ccccc1` (mixture of isomers) (as salt: hydrochloride) [Example 18, (2R)-3-({(2R)-2-amino-3-oxo-3-[(4RS)-4-(2-phenylethyl)-2-(2-thienyl)-6,7-dihydropyrazolo[1,5-a]pyrazin-5(4H)-yl]propyl}dithio)-1-oxo-1-[(4RS)-4-(2-phenylethyl)-2-(2-thienyl)-6,7-dihydropyrazolo[1,5-a]pyrazin-5(4H)-yl]propan-2-amine hydrochloride], the melting point is 218 °C (dec.). With `N[C@@H](CSSC[C@H](N)C(=O)N1CCn2nc(-c3ccco3)cc2C1CCc1ccccc1)C(=O)N1CCn2nc(-c3ccco3)cc2C1CCc1ccccc1` (mixture of isomers) (as salt: hydrochloride) [Example 19, (2R)-3-({(2R)-2-amino-3-[(4RS)-2-(2-furyl)-4-(2-phenylethyl)-6,7-dihydropyrazolo[1,5-a]pyrazin-5(4H)-yl]-3-oxopropyl}dithio)-1-[(4RS)-2-(2-furyl)-4-(2-phenylethyl)-6,7-dihydropyrazolo[1,5-a]pyrazin-5(4H)-yl]-1-oxopropan-2-amine hydrochloride], the melting point is 207 °C (dec.). For the compound `CCCCCC1c2cc(-c3ccccc3)nn2CCN1C(=O)[C@@H](N)CSSC[C@H](N)C(=O)N1CCn2nc(-c3ccccc3)cc2C1CCCCC` (mixture of isomers) (as salt: hydrochloride) [Example 20, (2R)-3-({(2R)-2-amino-3-oxo-3-[(4RS)-4-pentyl-2-phenyl-6,7-dihydropyrazolo[1,5-a]pyrazin-5(4H)-yl]propyl}dithio)-1-oxo-1-[(4RS)-4-pentyl-2-phenyl-6,7-dihydropyrazolo[1,5-a]pyrazin-5(4H)-yl]propan-2-amine hydrochloride], the melting point is 199 to 204 °C (dec.). For `CCCCC1c2cc(-c3ccccc3)nn2CCN1C(=O)[C@@H](N)CSSC[C@H](N)C(=O)N1CCn2nc(-c3ccccc3)cc2C1CCCC` (mixture of isomers) (as salt: hydrochloride) [Example 21, (2R)-3-({(2R)-2-amino-3-[(4RS)-4-butyl-2-phenyl-6,7-dihydropyrazolo[1,5-a]pyrazin-5(4H)-yl]-3-oxopropyl}dithio)-1-[(4RS)-4-butyl-2-phenyl-6,7-dihydropyrazolo[1,5-a]pyrazin-5(4H)-yl]-1-oxopropan-2-amine hydrochloride], the melting point was 210 to 215 °C (dec.). As to `N[C@@H](CSSC[C@H](N)C(=O)N1CCn2nc(-c3ccc(Cl)cc3Cl)cc2C1CCc1ccccc1)C(=O)N1CCn2nc(-c3ccc(Cl)cc3Cl)cc2C1CCc1ccccc1` (mixture of isomers) (as salt: hydrochloride) [Example 22, (2R)-3-({(2R)-2-amino-3-[(4RS)-2-(2,4-dichlorophenyl)-4-(2-phenylethyl)-6,7-dihydropyrazolo[1,5-a]pyrazin-5(4H)-yl]-3-oxopropyl}dithio)-1-[(4RS)-2-(2,4-dichlorophenyl)-4-(2-phenylethyl)-6,7-dihydropyrazolo[1,5-a]pyrazin-5(4H)-yl]-1-oxopropan-2-amine hydrochloride], the melting point fell in the range of 198 to 202 °C.

Take `N[C@@H](CSSC[C@H](N)C(=O)N1CCCn2nc(-c3ccccc3)cc2C1CC1CCCCC1)C(=O)N1CCCn2nc(-c3ccccc3)cc2C1CC1CCCCC1` (mixture of isomers) (as salt: hydrochloride) [Example 28, {(1R)-1-[({(2R)-2-amino-3-[(4RS)-4-(cyclohexylmethyl)-2-phenyl-7,8-dihydro-4H-pyrazolo[1,5-a][1,4]diazepin-5(6H)-yl]-3-oxopropyl}dithio)methyl]-2-[(4RS)-4-(cyclohexylmethyl)-2-phenyl-7,8-dihydro-4H-pyrazolo[1,5-a][1,4]diazepin-5(6H)-yl]-2-oxoethyl}amine hydrochloride]: the melting point fell in the range of 198 to 208 °C. For `N[C@@H](CSSC[C@H](N)C(=O)N1CCn2nc(-c3ccccn3)cc2C1CCc1ccccc1)C(=O)N1CCn2nc(-c3ccccn3)cc2C1CCc1ccccc1` (mixture of isomers) (as salt: hydrochloride) [Example 32, (2R)-3-({(2R)-2-amino-3-oxo-3-[(4RS)-4-(2-phenylethyl)-2-pyridin-2-yl-6,7-dihydropyrazolo[1,5-a]pyrazin-5(4H)-yl]propyl}dithio)-1-oxo-1-[(4RS)-4-(2-phenylethyl)-2-pyridin-2-yl-6,7-dihydropyrazolo[1,5-a]pyrazin-5(4H)-yl]propan-2-amine hydrochloride], the melting point was 232 to 234 °C (dec.).
